Source: publication PMC4178217, “Quinoline 3-sulfonamides inhibit lactate dehydrogenase A and reverse aerobic glycolysis in cancer cells” (Cancer & Metabolism, 2013)

Columns and labels:
[1] = test system: HepG2 cells; assay: Cell proliferation and survival, HepG2 (trypan blue, Vi-Cell); assay type: cell-based, human; details: 4 to 8 days
Method: (§1) Sixty thousand Snu398 cells per well were plated in 6-well tissue culture plates in RPMI-1640 medium supplemented with 2.5% charcoal-stripped FBS (Life Technologies). Cells were allowed to attach overnight and then DMSO control or the indicated doses of LDHA inhibitor dissolved in DMSO were added directly to the wells. After 4 to 8 days of incubation in the indicated oxygen conditions, adherent cells were trypsinized, counted, and had their viability assessed by the trypan-blue exclusion method using the Vi-Cell XR Cell Viability Analyzer (Beckman Coulter, Brea, CA, USA). The same procedure was carried out for HepG2 cells, except non-charcoal-stripped FBS was used. For PARP cleavage analysis, both floating and adherent cells were collected after 24 h and the whole-cell extracts were prepared in radioimmunoprecipitation assay (RIPA) buffer (Sigma-Aldrich) supplemented with protease and phosphatase inhibitor cocktails (Sigma-Aldrich). Solubilized proteins were separated by SDS-PAGE, transferred onto nitrocellulose membrane, and detected with each specific antibody.

[2] = PK analysis in mice; assay type: in vivo, male CD mice; details: oral 100 mg/kg, detection limit 2.5 ng/mL
Method: All studies were conducted after review by the Institutional Animal Care and Use Committee at GlaxoSmithKline (GSK) and in accordance with the GSK Policy on the Care, Welfare and Treatment of Laboratory Animals.

[3] = test system: MDA-MB-453 cells; assay: Lactate production in normoxia/hypoxia, MDA-MB-453 (YSI analyzer); details: Homo sapiens, MDA-MB-453, 2 h, read-out: lactate production EC50 in hypoxia
[4] = test system: HepG2 cells; assay: 13C NMR spectroscopy of glucose consumption and lactate production, HepG2; assay type: cell-based, human; details: HepG2, 10 μM
Method: After this pre-incubation, cells were washed in PBS and resuspended in 400 μL of glucose-free RPMI supplemented with 10% deuterium oxide, 11 mM D-(1,6-^13C2)glucose, and LDHA inhibitor or DMSO. An additional 600 μL of the same medium was gently added to top off the resuspended cells. Five mm NMR tubes with reduced sample depth (Shigemi Inc, Allison Park, PA, USA) were used to ensure that the cells remain inside the active volume of the receiver coil of the probe. […] . Prior to Fourier transformation, sensitivity and resolution were enhanced by applying an exponential line-broadening of 1 Hz over the first 32,000 data points and then zero filled to 256,000 data points. Spectra were analyzed using in-house data analysis software.

[5] = test system: MDA-MB-453 cells; assay: ECAR after rotenone/antimycin, MDA-MB-453 (Seahorse XF96); assay type: cell-based; details: Homo sapiens; MDA-MB-453, after rotenone/antimycin
Method: For XF96 experiments breast cancer cells were seeded in DMEM without bicarbonate at 16,000/well in XF96 V3 PET plates (Seahorse Biosciences) coated with CellTak (BD Biosciences, San Jose, CA, USA). […] HepG2 cells were seeded at 16K/well in XF96 V3 PET plates and left overnight for attachment. The medium was exchanged with DMEM without bicarbonate prior to readings on the XF96 Analyzer (Seahorse Biosciences).

[6] = test system: PKM2 in Snu398 cells; assay: PKM2 tetramerization (native gel, western immunoblotting); assay type: cell-based, human; details: Snu398, 6 h
Method: One and a half million cells per well were plated in 6-well tissue culture plates in R10 medium and allowed to attach overnight. The following morning, cells were washed and medium replaced with 2 mL/well of low-glucose medium. DMSO control or the indicated doses of LDHA inhibitor dissolved in DMSO were added to the wells and cells were incubated at 37°C for 6 h. Following the incubation, cells were washed, scraped into 200 μl of distilled de-ionized water and homogenized on ice using OMNI THq homogenizer (Omni International, Kennesaw, GA, USA). Homogenates were cleared by centrifugation and protein concentration measured by bicinchoninic acid (BCA) assay (Thermo Fisher Scientific, Waltham, MA, USA). PK activity was determined using PK Activity kit (BioVision Research Products) per manufacturer’s instructions and normalized to protein concentration. For detection of PKM2 oligomerization, the same protein samples were separated by non-denaturing gel electrophoresis using the NativePAGE™ gel system (Life Technologies), transferred onto polyvinylidene difluoride (PVDF) membranes and subjected to western immunoblotting with anti-PKM2 antibody.

[7] = test system: Snu398 cells; assay: Cell proliferation and survival, Snu398 (trypan blue, Vi-Cell); assay type: cell-based, human
Method: as §1

[8] = test system: Snu398 cells; assay: Metabolomics analysis, Snu398 whole-cell extracts; assay type: cell-based, human; details: Snu398 whole-cell lysates, 10 μM, 24 h
[9] = biological target: recombinant human LDHB (Homo sapiens, UniProt P07195); assay: recombinant human LDHB enzyme assay (lactate to pyruvate, NADH via diaphorase/resazurin)
recombinant human LDHB, sequence (P07195 whole entry): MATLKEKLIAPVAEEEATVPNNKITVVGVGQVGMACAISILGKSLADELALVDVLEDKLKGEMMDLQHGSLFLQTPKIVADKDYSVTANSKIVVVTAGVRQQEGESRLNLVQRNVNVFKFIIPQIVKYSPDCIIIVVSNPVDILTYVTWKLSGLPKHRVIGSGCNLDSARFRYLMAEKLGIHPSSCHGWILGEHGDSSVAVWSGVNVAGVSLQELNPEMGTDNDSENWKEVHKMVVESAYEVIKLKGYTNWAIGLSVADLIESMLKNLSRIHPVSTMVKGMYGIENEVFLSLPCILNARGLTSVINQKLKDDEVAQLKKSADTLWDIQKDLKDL

Q: Which HepG2 survival [1] does the source give for `COc1ncc(-c2ccc3c(Nc4cc(Oc5cc(F)cc(F)c5)cc(C(=O)O)c4)c(S(=O)(=O)NC4CC4)cnc3c2)c(OC)n1` [Compound 1] here?
A: did not change HepG2 survival except at the highest dose

Q: What about the blood compound level [2] of the same compound?
A: ≤ 2.5 ng/mL

Q: And the EC50 [3]?
A: 10 µM

Q: What about the “(3-13C)lactate production” value [4] of the same compound?
A: significantly slowed down lactate production

Q: What about the EC50 [5] of the same compound?
A: 10 µM

Q: What about the PKM2 tetramerization [6] of the same compound?
A: dose dependently promoted formation of the active tetrameric form of PKM2

Q: And the EC50 ([7]; Homo sapiens, SNU-398, Snu398, 4 to 8 days, read-out: viable cell number EC50)?
A: 2.9 ± 0.6 µM

Q: And the “dose sufficient to induce cell death” value ([7]; Snu398, with FK866)?
A: 3 µM

Q: Which results are given for `COc1ncc(-c2ccc3c(Nc4cc(C(=O)O)cc(C5CCCC5)c4)c(S(=O)(=O)NC4CC4)cnc3c2)c(OC)n1` [Compound 2]?
A: increase of cytosolic glycolysis intermediates [8]: ≤ 40 fold; IC50 [9]: 0.22 ± 0.02 µM
